# B1: recombinant haptoglobin: recombinant haptoglobin, a natural chelator of free hemoglobin (protein, UniProt P00738 19-406, looked up)
# Haptoglobin: VDSGNDVTDIADDGCPKPPEIAHGYVEHSVRYQCKNYYKLRTEGDGVYTLNDKKQWINKAVGDKLPECEADDGCPKPPEIAHGYVEHSVRYQCKNYYKLRTEGDGVYTLNNEKQWINKAVGDKLPECEAVCGKPKNPANPVQRILGGHLDAKGSFPWQAKMVSHHNLTTGATLINEQWLLTTAKNLFLNHSENATAKDIAPTLTLYVGKKQLVEIEKVVLHPNYSQVDIGLIKLKQKVSVNERVMPICLPSKDYAEVGRVGYVSGWGRNANFKFTDHLKYVMLPVADQDQCIRHYEGSTVPEKKTPKSPVGVQPILNEHTFCAGMSKYQEDTCYGDAGSAFAVHDLEEDTWYATGILSFDKSCAVAEYGVYVKVTSIQDWVQKTIAEN
# Assays:
# [1] = system: monocytes and macrophages; assay: Depletion of intestinal monocytes/macrophages (flow cytometry); type: in vivo, mouse; conditions: CSF1R-DTR/mCherry×Lyz2-cre pups; 5 ng/g weight; FIG. 7E
# Procedure: Flow cytometry: Macrophages were defined by flow cytometry (BD LSRII, Franklin Lakes, N.J.). Intestinal tissue was washed with Hanks' balanced-salt solution (HBSS) containing 1 mM DTT (Sigma) to remove mucus, and then treated first with HBSS containing 1 mM EDTA (Sigma)×20 min at 37° C., and then with HBSS containing 1 mM collagenase type IV (Sigma)×2 hrs at 37° C. Cell suspension was stained using established protocols with the L-D viability dye (ThermoFisher), lineage cocktail (BioLegend, San Diego, Calif.), and antibodies against CD11b, Ly6C, F4/80, Ly6G, and Ly6B (BioLegend).
# Murine intestinal macrophages: Murine intestinal macrophages were isolated by immunomagnetic separation, where these cells were first stained with phycoerythrin (PE)-conjugated anti-CD11b, anti-F4/80, and anti-Ly6C antibodies and then separated using anti-PE-conjugated ferromagnetic beads (Miltenyi Biotec, San Diego, Calif.). In some experiments, monocytes and macrophages were depleted by administering clodronate liposomes (Clodrosome, Brentwood, Tenn.). A 50 mg/kg intraperitoneal dose was used and an identical dose by enema on postnatal day 8, which depleted >80% monocytes and macrophages in 72 hrs (pre-determined optimum).
# These findings were confirmed using a second, more specific approach for macrophage depletion. […]
# anemic-transfused mice = assay: RBC transfusion-associated NEC-like injury in anemic-transfused mouse pups; type: in vivo
# Procedure: Experimental design: Animal studies were approved by the Institutional Animal Care and Use Committee. C57BL/6 mice pups were studied in 4 groups: (a) naïve control; (b) transfusion control; (c) anemic control; and (d) anemic-transfused mice. Naïve controls were maintained without intervention. Transfusion controls received an intravenous RBC transfusion (20 mL/kg into the retro-orbital venous plexus, injected in 2 aliquots on each side) on postnatal day 11 (P11). RBCs for transfusion were collected in a sterile fashion from adult FVB/NJ donors after sacrifice into citrate-phosphate-dextrose-adenine-1 (CPDA-1; Sigma, St. Louis, Mo.; 6 parts blood: 1 part CPDA-1). […] Hematocrits and RBC indices were measured at each phlebotomy and then everyday on P11-13; 5 μL blood was diluted 1:20 in Cellpak reagent (Sysmex, Kobe, Japan) and analyzed in the Sysmex XT-2000iV automated veterinary hematology analyzer. […] To measure gut barrier function, FITC-dextran was administered by gavage (10 kDa, 400 mg/kg) 4 hrs before sacrifice and measured the FITC fluorescence signal in plasma samples obtained just prior to sacrifice. To measure regional blood flow, […] fluorescence-labeled microspheres were administered intravenously (15 μm, ThermoFisher, Waltham, Mass.) 1 hr before sacrifice and the fluorescence signal was measured in tissue lysates. […]
# NF-κB = NF-κB reporter RAW264.7 macrophages stimulated with 7-day-stored RBCs; type: cell-based, murine; conditions: haptoglobin 10 μg/mL added with 7-day RBCs; FIG. 5H
Molecule,inflammatory F4/80mid CD115+Ly6Chi macrophages (not resident macrophages) [1],"transfusion-associated NEC-like injury (onset, severity of bowel injury) (anemic-transfused mice; CSF1R-DTR/mCherry×Lyz2-cre anemic-transfused pups, 5 ng/g weight, FIGS. 7E-7G)","transfusion-associated NEC-like injury (onset, severity of bowel injury) (anemic-transfused mice; intravenous 10 μg/g body weight 1 hr before transfusion, FIGS. 5I-5J)",inflammatory effect of 7-day-stored RBC units on macrophages (relative NF-κB activity) (NF-κB)
diphtheria toxin,selectively depleted,protective,,
B1,,,protective,reversed

# Source: patent publication US10973932B2, “Preclinical model of neonatal necrotizing enterocolitis” (University of South Florida, priority 2017, dated 2021)
